Test results: BindingDB's records for doi:10.1016/j.bmc.2006.10.050 (Paradigm Pharmaceuticals, 2007)

Experiments:
[1] = target: Serine/threonine-protein kinase PLK3 (Homo sapiens, UniProt Q9H4B4); assay: PLK3 Kinase Inhibition Assay; conditions: pH 7; 22 °C
Description: The mode of human PLK3 inhibition by LFM-A13 was examined in titration experiments using increasing concentrations of [gamma-32P]ATP and purified N-terminal His6-tagged recombinant human PLK3. The Ki of PLK3 by LFM-A13 was calculated from the reciprocal plots of the intensity of phosphorylation of the substrate versus the concentration of the inhibitor. From this Dixon plot, the Ki represents the dissociation constants of the EI complex, which is determined by the point of linear intersection.

[2] = target: Cyclin-A2/Cyclin-dependent kinase 2 (Homo sapiens, UniProt P24941); assay: Kinase Selectivity Assay
From the text: (§1) The specificity of LFM-A13 was further examined against a broad panel of serine-threonine kinases and tyrosine kinases using the KinaseProfiler Assay protocols from Upstate (Charlottesville, Virginia).

[3] = target: T1, Serine/threonine-protein kinase Chk1 (Homo sapiens, UniProt O14757); assay: Kinase Selectivity Assay
T1 sequence (O14757 whole entry): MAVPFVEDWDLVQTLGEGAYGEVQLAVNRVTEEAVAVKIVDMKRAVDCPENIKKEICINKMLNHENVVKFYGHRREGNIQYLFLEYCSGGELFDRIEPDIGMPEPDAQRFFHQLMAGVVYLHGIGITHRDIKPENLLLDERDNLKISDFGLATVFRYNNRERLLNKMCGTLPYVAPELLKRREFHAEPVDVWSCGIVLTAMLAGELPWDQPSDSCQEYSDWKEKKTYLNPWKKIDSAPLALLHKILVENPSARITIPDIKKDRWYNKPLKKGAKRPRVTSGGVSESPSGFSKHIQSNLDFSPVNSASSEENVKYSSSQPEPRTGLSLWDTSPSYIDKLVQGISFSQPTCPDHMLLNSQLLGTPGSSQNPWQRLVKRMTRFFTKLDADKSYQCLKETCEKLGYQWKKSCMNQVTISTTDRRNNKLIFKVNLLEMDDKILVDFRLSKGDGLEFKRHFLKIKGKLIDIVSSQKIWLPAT
From the text: as §1

[4] = target: T2, Cytoplasmic tyrosine-protein kinase BMX (Homo sapiens, UniProt P51813); assay: Kinase Selectivity Assay
T2 sequence (P51813 whole entry): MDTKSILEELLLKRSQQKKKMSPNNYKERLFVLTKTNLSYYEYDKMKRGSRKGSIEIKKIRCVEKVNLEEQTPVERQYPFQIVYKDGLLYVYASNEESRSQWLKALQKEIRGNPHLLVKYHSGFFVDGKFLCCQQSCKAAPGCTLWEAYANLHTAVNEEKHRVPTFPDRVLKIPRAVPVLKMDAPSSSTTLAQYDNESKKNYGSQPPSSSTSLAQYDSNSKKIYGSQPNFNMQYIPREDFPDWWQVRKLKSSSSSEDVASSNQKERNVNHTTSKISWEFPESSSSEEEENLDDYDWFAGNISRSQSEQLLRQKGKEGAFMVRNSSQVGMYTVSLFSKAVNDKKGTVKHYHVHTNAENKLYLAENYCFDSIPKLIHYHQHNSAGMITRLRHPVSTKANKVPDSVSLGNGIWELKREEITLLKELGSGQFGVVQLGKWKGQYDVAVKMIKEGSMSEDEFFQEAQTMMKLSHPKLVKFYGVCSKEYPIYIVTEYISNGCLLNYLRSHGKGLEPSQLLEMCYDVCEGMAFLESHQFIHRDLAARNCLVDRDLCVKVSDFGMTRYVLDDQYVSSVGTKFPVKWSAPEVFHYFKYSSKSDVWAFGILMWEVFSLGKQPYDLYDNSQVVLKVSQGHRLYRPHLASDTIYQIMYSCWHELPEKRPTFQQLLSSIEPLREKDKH
From the text: as §1

[5] = target: Cyclin-dependent kinase/G2/mitotic-specific cyclin- 1 (Homo sapiens, UniProt P06493); assay: Kinase Selectivity Assay
From the text: as §1

[6] = target: Tyrosine-protein kinase Fyn (Homo sapiens, UniProt P06241); assay: Kinase Selectivity Assay
Sequence of Tyrosine-protein kinase Fyn (P06241 whole entry): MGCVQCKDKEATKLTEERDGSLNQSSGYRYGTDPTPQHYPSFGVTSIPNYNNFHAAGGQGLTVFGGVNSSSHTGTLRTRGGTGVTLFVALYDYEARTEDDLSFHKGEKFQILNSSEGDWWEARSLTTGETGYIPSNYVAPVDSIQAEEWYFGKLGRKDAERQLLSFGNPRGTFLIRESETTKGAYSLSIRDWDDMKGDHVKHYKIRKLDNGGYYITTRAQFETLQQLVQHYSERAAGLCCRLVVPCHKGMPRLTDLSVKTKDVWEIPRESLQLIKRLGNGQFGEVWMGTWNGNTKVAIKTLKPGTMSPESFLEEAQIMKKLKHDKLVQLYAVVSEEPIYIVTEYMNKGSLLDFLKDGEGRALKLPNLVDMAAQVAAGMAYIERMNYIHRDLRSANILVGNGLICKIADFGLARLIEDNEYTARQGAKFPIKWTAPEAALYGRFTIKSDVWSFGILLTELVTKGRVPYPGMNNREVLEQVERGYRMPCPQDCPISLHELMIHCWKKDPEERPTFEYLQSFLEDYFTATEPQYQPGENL
From the text: as §1

[7] = target: Hepatocyte growth factor receptor (Homo sapiens, UniProt P08581); assay: Kinase Selectivity Assay
Sequence of Hepatocyte growth factor receptor (P08581 whole entry): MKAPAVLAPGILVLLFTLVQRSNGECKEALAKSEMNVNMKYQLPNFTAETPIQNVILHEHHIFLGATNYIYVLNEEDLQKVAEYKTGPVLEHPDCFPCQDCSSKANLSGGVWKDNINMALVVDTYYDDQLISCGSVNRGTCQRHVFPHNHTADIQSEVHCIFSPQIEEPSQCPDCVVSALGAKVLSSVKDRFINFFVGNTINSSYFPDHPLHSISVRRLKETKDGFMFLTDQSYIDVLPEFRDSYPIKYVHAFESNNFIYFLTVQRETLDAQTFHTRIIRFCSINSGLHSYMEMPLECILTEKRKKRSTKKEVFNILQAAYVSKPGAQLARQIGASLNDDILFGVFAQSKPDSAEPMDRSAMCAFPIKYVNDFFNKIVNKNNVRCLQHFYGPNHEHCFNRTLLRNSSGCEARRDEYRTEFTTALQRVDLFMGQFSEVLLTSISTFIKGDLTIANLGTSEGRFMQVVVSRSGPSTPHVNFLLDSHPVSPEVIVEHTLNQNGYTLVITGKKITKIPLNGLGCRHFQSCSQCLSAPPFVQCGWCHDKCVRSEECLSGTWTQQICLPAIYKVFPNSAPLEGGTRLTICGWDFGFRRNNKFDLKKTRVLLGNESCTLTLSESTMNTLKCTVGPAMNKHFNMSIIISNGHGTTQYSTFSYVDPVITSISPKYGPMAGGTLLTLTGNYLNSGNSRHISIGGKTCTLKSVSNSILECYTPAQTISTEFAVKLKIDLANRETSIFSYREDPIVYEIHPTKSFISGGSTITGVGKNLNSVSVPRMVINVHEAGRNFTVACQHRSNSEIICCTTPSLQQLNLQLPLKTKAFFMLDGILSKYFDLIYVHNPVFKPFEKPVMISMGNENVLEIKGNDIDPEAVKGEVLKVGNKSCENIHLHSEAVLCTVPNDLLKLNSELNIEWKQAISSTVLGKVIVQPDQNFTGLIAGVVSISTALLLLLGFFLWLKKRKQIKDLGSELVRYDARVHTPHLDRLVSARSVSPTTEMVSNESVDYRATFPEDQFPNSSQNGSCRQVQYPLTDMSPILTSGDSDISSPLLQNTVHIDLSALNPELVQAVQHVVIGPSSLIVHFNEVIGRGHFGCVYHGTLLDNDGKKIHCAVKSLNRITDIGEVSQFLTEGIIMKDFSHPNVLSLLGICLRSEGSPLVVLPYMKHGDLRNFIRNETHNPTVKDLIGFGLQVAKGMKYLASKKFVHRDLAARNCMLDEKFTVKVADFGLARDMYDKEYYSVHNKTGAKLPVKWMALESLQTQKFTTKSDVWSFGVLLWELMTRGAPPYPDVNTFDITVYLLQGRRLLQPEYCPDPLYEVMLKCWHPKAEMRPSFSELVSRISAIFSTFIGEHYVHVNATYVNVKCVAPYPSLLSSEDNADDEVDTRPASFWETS
From the text: as §1

[8] = target: Mast/stem cell growth factor receptor Kit (Homo sapiens, UniProt P10721); assay: Kinase Selectivity Assay
Sequence of Mast/stem cell growth factor receptor Kit (P10721 whole entry): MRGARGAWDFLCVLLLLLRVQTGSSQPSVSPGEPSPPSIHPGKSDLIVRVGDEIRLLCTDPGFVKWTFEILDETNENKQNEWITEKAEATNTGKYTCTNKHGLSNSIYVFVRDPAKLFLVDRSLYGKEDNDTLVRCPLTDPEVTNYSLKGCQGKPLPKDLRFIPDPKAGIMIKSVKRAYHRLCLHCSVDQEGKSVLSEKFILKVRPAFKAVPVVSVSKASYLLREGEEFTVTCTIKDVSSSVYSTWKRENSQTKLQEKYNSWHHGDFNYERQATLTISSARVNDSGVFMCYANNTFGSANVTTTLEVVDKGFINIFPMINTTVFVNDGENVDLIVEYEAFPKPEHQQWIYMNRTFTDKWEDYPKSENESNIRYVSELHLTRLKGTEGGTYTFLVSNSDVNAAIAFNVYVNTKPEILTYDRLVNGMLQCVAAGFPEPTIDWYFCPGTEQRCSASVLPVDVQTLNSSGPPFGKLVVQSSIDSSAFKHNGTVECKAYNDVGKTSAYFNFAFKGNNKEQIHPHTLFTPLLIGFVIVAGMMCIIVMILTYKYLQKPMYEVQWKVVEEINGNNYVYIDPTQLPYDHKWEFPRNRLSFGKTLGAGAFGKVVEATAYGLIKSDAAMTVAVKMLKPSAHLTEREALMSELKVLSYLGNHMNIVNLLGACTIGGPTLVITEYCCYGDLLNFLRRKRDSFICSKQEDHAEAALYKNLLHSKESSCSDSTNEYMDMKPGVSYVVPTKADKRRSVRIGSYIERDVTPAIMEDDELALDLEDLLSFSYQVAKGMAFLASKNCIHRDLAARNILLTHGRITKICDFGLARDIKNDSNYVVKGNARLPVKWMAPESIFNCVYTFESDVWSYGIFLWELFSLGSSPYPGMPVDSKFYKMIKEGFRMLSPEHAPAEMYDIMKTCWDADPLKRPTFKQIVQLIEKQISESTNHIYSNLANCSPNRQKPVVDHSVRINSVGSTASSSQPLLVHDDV
From the text: as §1

[9] = target: Protein-tyrosine kinase 6 (Homo sapiens, UniProt Q13882); assay: Kinase Selectivity Assay
Sequence of Protein-tyrosine kinase 6 (Q13882 whole entry): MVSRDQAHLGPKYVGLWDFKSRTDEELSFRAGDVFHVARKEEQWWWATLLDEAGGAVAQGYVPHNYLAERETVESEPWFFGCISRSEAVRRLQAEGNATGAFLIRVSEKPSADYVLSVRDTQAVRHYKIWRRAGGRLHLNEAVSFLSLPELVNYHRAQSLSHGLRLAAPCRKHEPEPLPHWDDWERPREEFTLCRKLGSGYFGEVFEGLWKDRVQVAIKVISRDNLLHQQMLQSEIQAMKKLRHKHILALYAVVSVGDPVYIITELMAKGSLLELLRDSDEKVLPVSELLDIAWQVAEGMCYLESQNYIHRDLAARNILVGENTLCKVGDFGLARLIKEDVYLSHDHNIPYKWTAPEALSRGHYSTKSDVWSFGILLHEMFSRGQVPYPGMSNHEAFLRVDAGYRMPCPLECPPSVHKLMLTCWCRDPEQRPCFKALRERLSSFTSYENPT
From the text: as §1

[10] = target: Serine/threonine-protein kinase PLK1 (Xenopus laevis, UniProt P70032); assay: Plx1 Kinase Inhibition Assay; conditions: pH 7.5; 22 °C
Sequence of Serine/threonine-protein kinase PLK1 (P70032 whole entry): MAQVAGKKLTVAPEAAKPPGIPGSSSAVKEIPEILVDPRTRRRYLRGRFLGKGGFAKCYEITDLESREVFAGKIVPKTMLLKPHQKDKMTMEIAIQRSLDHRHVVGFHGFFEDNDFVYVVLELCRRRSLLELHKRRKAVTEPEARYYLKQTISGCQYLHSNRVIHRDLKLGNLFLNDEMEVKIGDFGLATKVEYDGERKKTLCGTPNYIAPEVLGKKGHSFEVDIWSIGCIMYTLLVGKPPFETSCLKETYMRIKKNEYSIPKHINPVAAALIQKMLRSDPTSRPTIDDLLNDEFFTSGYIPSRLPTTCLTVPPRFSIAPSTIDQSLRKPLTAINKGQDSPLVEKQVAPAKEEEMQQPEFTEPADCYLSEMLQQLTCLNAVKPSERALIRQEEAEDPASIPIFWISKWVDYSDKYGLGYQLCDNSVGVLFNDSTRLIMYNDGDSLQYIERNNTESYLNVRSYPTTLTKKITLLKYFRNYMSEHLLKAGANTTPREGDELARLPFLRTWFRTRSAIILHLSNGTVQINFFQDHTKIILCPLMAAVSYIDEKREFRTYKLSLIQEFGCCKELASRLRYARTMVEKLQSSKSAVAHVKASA
Description: Purified Plx1 was first incubated with different concentrations of LFM-A13. The substrate, GST-Cdc25 peptide (254-316) and [gamma-32P]ATP were added and the kinase reaction allowed to proceed for 15 min at room temperature. After incubation, incorporation of radioactivity to the substrate was further quantified.

Sequence of Serine/threonine-protein kinase PLK3 (Q9H4B4 whole entry): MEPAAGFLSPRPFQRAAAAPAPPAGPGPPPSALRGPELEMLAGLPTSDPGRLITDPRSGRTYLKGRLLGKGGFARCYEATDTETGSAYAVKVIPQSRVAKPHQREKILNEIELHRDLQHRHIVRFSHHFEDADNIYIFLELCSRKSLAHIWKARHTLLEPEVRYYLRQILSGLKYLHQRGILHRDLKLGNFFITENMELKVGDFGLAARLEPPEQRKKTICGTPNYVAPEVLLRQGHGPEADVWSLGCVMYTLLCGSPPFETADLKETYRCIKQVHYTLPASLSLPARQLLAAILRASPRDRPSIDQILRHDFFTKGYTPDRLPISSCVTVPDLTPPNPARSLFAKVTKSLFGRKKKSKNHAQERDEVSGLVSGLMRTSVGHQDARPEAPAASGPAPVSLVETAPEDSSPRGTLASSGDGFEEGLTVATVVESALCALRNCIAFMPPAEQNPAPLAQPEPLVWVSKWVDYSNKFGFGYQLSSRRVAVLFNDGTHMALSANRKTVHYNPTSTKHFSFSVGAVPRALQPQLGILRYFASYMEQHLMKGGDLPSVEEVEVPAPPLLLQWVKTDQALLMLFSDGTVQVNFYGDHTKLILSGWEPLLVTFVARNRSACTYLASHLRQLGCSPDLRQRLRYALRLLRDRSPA

## CC(=O)C(C#N)C(=O)Nc1cc(Br)ccc1Br (stereo unspecified)
[1]
  IC50: 61 µM
  Ki: 7.2 µM
[2]
  IC50: > 500 µM
[3]
  IC50: > 500 µM
[4]
  IC50: 281 µM
[5]
  IC50: > 500 µM
[6]
  IC50: 240 µM
[7]
  IC50: 215 µM
[8]
  IC50: > 500 µM
[9]
  IC50: 267 µM
[10]
  IC50: 10 µM
